Like-named read-outs stand apart in the source and are kept apart here.
Assays:
FFA3/GPR41 [1] = biological target: T1, FFA3/GPR41 (Homo sapiens, UniProt O14843); design: method as in PMID 32141297; settings: described in the literature; cited from earlier work
T1 construct: host or cells: Flp-In-293
T1 sequence (O14843 1-346): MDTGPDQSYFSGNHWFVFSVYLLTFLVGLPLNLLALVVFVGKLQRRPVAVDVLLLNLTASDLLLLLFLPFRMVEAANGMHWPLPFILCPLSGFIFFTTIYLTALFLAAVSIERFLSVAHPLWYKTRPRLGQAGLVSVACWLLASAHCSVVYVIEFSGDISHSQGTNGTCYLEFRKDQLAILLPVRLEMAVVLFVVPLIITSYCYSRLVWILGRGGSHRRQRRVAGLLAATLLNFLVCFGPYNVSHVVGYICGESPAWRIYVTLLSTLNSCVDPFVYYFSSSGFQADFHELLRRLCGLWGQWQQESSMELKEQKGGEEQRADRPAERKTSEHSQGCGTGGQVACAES

FFA3/GPR41 mRNA = experiment: FFA3/GPR41 gene expression in LPS-stimulated THP-1 macrophages (qRT-PCR); assay type: cell-based, human; settings: 4 h LPS 1 µg/mL; for LPS-stimulated FFA3/GPR41 mRNA level: compound 50 µM, p < 0.05
Protocol: (§1) The human THP-1 monocyte cell line was obtained from ATCC (American Type Culture Collection). […] The THP-1 monocytes were stimulated to differentiate into macrophages with phorbol 12-myristate 13-acetate (PMA) (50 ng/mL) for 24 h. The medium was exchanged for PMA-free medium for 48 h before the cells were used for experiments.
(§2) The total RNA was isolated from THP-1 cells using TRIzol reagent, according to the manufacturer’s protocol. First-strand cDNA was synthesized from 2 µg of RNA using oligo(dT) primers with RevertAid H Minus kit (Thermo Fisher Scientific, USA). The qRT-PCR procedure was performed using ABsolute Blue QPCR SYBR Green Master Mix reagent (Thermo Fisher Scientific, USA) with a ViiA7 real-time PCR detection system (Applied Biosystems, USA). The primer pairs that were employed for HCA2/GPR109A were forward 5′-[…]-3′ and reverse 5′-[…]-3′; for FFA2/GPR43 were forward 5′-[…]-3′ and reverse 5′-[…]-3′; for FFA3/GPR41 were forward 5′-[…]-3′ and reverse 5′-[…]-3′; for IL-6 were forward 5′-[…]-3′ and reverse 5′-[…]-3′; for MCP-1 were forward 5′-[…]-3′ and reverse 5′-[…]-3′; for TNF-α were forward 5′-[…]-3′ and reverse 5′-[…]-3′; for RPS29 were forward 5′-[…]-3′ and reverse 5′- […]-3′. The mRNA levels were quantified and normalized to the levels of the reference gene RPS29 using the 2^−ΔΔCt method and presented as relative expression compared to the values for untreated cells.

FFA2/GPR43 = biological target: T2, FFA2/GPR43 (Homo sapiens, UniProt O15552); experiment: forskolin-stimulated cAMP accumulation assay, Flp-In-293 cells stably expressing FFA2/GPR43; assay type: cell-based; settings: for inhibition at 50 µM: 50 µM compound, NA = not active up to 50 µM
T2 construct: host or cells: Flp-In-293
T2 sequence (O15552 1-330): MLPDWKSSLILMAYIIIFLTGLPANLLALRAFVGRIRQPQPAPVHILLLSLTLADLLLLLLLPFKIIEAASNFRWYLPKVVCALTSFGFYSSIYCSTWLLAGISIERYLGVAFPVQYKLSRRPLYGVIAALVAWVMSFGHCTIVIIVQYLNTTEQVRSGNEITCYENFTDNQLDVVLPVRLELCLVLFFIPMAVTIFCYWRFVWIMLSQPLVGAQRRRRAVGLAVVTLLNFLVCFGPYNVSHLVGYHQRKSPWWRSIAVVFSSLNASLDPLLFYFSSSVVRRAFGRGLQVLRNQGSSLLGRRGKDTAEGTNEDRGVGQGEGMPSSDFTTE
Protocol: (§3) All of our synthesized compounds were evaluated in forskolin-stimulated cAMP accumulation assay using Flp-In-293 cells stably expressing human FFA2/GPR43, FFA3/GPR41 or HCA2/GPR109A receptors (Table 1, Table 2 and Table 3; Figure 2).
(§4) Flp-In-293 cells (Invitrogen) were used for the generation of stable FFA3/GPR41 and FFA2/GRP43 cell lines using Flp-In System (Invitrogen). Flp-In-293 cells were cultured in Dulbecco’s modified Eagle medium (DMEM) supplemented with 10% fetal bovine serum (FBS), penicillin (100 U/mL), streptomycin (100 µg/mL), and zeocin (100 µg/mL). The cells were co-transfected with pOG44 (Invitrogen) and pcDNA5/FRT-FFA3 or pcDNA5/FRT-FFA2 using TurboFect (Thermo Fisher Scientific), and stable cell lines were generated according to the manufacturer’s protocol (Invitrogen). After transfection, the cells were cultured under selection pressure due to the presence of hygromycin B (100 µg/mL) in DMEM supplemented with 10% FBS, penicillin, and streptomycin.
(§5) For cAMP assay, the cells were distributed into a 384-well white microplate at a density of 12,000 cells per well and stimulated with the indicated compounds in the presence of 3 μM forskolin for 30 min. […] The cells and the compounds were diluted in 1X phosphate-buffered saline (PBS) supplemented with 0.5 mM of 3-isobutyl-1-methylxanthine. The intracellular cAMP levels were measured using a Lance cAMP kit according to the manufacturer’s instructions. The plates were read on a PerkinElmer Victor 3V multilabel plate reader. The cAMP was quantitated in each sample by comparison to a calibration curve of known cAMP quantities provided in the kit.

[2] = cyclic voltammetry, electrooxidation potential; assay type: physicochemical; settings: vs. Ag/Ag+; acetonitrile, glassy carbon electrode
Protocol: Cyclic voltammetry experiments were carried out using a PARSTAT 2273 electrochemical system. A stationary glassy carbon disk electrode (d = 0.8 mm) served as the working electrode, while the counter electrode was a Pt wire. The oxidation potentials were measured relative to an Ag/Ag^+ reference electrode. Acetonitrile was dried over P2O5 and distilled; the distillate was stored over CaH2 and redistilled immediately prior to use. Recrystallized tetrabutylammonium tetrafluoroborate (TBATFB) was used as a supporting electrolyte at 0.1 M concentration.

IL-6 mRNA = experiment: LPS-induced IL-6 gene expression in THP-1 macrophages (qRT-PCR); assay type: cell-based, human; settings: 4 h LPS, LPS-treated cells = 100%; for decrease in IL-6 mRNA: compound 50 µg/mL
Protocol: as §1, §2

MCP-1 mRNA = experiment: LPS-induced MCP-1 gene expression in THP-1 macrophages (qRT-PCR); assay type: cell-based, human; settings: 4 h LPS, LPS-treated cells = 100%; for decrease in MCP-1 mRNA: compound 50 µg/mL
Protocol: as §1, §2

FFA3/GPR41 [3] = biological target: T1, FFA3/GPR41; experiment: forskolin-stimulated cAMP accumulation assay, Flp-In-293 cells stably expressing FFA3/GPR41; assay type: cell-based; settings: for Emax: read-out: FFA3/GPR41 Emax, maximal inhibition of forskolin-stimulated cAMP (converted)
Protocol: as §3, §4, §5

[4] = design: method as in PMID 32141297; settings: calculated with ChemDraw Professional Version 16; cited from earlier work
TNF-α mRNA = experiment: LPS-induced TNF-α gene expression in THP-1 macrophages (qRT-PCR); assay type: cell-based, human; settings: 4 h LPS, LPS-treated cells = 100%; for decrease in TNF-α mRNA: compound 50 µg/mL
Protocol: as §1, §2

HCA2/GPR109A mRNA = experiment: HCA2/GPR109A gene expression in LPS-stimulated THP-1 macrophages (qRT-PCR); assay type: cell-based, human; settings: compound 50 µM; 4 h LPS 1 µg/mL; p < 0.05
Protocol: as §1, §2

HCA2/GPR109A = biological target: T3, HCA2/GPR109A (Homo sapiens, UniProt Q8TDS4); experiment: forskolin-stimulated cAMP accumulation assay, Flp-In-293 cells stably expressing HCA2/GPR109A; assay type: cell-based; settings: for Emax / EC50: mean ± SD; for Emax: read-out: HCA2/GPR109A Emax, maximal inhibition of forskolin-stimulated cAMP (converted); for EC50: inhibition of forskolin-stimulated cAMP, read-out: HCA2/GPR109A EC50
T3 construct: expressed in transfected cells; host or cells: Flp-In-293
Protocol: as §3
Flp-In-293 cells stably expressing human HCA2/GPR109A receptor (laboratory collection) were grown in DMEM medium supplemented with 10% FBS, penicillin, streptomycin, and hygromycin B (100 µg/mL). All cells were cultured at 37 °C in a humidified incubator containing 5% CO2.
as §5

FFA2/GPR43 mRNA = experiment: FFA2/GPR43 gene expression in LPS-stimulated THP-1 macrophages (qRT-PCR); assay type: cell-based, human; settings: 4 h LPS 1 µg/mL
Protocol: as §1, §2

[5] = inhibition of forskolin-stimulated cAMP, absence of propionate, mean ± SD, read-out: FFA3/GPR41 EC50
[6] = presence of 5 µM propionate, read-out: FFA3/GPR41 EC50 in the presence of propionate

T3 sequence (Q8TDS4 whole entry): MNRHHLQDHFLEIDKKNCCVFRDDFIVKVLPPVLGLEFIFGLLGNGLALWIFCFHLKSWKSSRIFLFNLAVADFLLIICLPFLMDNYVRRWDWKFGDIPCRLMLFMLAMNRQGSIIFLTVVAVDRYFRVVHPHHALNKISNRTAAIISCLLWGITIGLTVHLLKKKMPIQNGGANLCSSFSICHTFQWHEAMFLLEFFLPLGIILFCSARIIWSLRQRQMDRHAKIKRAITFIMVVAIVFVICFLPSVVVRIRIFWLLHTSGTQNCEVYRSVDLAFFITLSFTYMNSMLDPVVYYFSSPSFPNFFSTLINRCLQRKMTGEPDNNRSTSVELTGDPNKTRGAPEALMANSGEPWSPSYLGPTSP

Row | Molecule | LPS-stimulated FFA3/GPR41 mRNA level (FFA3/GPR41 mRNA) | El.ox. pot. (first, lower potential) [2] [V] | El.ox. pot. (second, higher potential) [2] [V] | decrease in IL-6 mRNA (IL-6 mRNA) [%] | decrease in MCP-1 mRNA (MCP-1 mRNA) [%] | Emax (FFA3/GPR41 [3]; Flp-In-293, mean ± SD) [%] | EC50 (FFA3/GPR41 [3]; [5]) [nM] | EC50 (FFA3/GPR41 [3]; [6]) [nM] | logP [4] | decrease in TNF-α mRNA (TNF-α mRNA) [%] | LPS-stimulated HCA2/GPR109A mRNA level (HCA2/GPR109A mRNA) | further results
1 | 4-i-butylhexahydroquinoline methyl ester [compound 28] |  |  |  |  |  |  |  |  |  |  |  | activity in the cAMP assay (in words) (FFA3/GPR41 [1]): no activity
2 | CC1=C(C(=O)Nc2ccccc2C)C(c2cccs2)C2=C(CCCC2=O)N1 (stereo not drawn) [1-1] | significantly increased | 1.19 | 1.64 | 67 ± 1 | 53 ± 5 | 96 | 1790 ± 300 | 640 ± 200 | 2.65 | 59 ± 10 |  | activity towards FFA2/GPR43 (in words) (FFA2/GPR43; cAMP assay): lacked activity
3 | CC1=C(C(=O)Nc2ccccc2C)C(c2ccco2)C2=C(CCCC2=O)N1 (stereo not drawn) [1-2] | significantly increased | 1.19 | 1.99 | 74 ± 1 | 67 ± 10 | 93 | 610 ± 90 | 580 ± 30 | 2.18 | 64 ± 13 |  | 
4 | CC1=C(C(=O)Nc2cc(Cl)ccc2Cl)C(c2ccco2)C2=C(CCCC2=O)N1 (stereo not drawn) [1-3] |  |  |  |  |  | 99 | 320 ± 50 | 100 ± 20 | 2.90 |  |  | 
5 | CC1=C(C(=O)Nc2ccc(Cl)cc2Cl)C(c2ccco2)C2=C(CCCC2=O)N1 (stereo not drawn) [1-4, N-(2,4-Dichlorophenyl)-4-(furan-2-yl)-2-methyl-5-oxo-1,4,5,6,7,8-hexahydroquinoline-3-carboxamide] |  | 1.24 | 1.67 | 64 ± 5 | 37 ± 6 | 86 | 230 ± 70 | 81 ± 40 |  | 50 ± 2 |  | 
6 | O=c1[nH]c(=O)c2c(CCCCCl)cc(=O)oc2[nH]1 [2-7, 5-(4-Chlorobutyl)-1H-pyrano[2,3-d]pyrimidine-2,4,7-trione] | significantly increased |  |  | 74 ± 3 | 50 ± 5 | 89 | 220 ± 30 |  |  | 48 ± 11 | significantly reduced | Emax (FFA2/GPR43; Flp-In-293, mean ± SD, read-out: FFA2/GPR43 Emax, maximal inhibition of forskolin-stimulated cAMP (converted)): 88%; EC50 (FFA2/GPR43; inhibition of forskolin-stimulated cAMP, mean ± SD): 380 ± 60 nM; El.ox. pot. (single value) [2]: 1.94 V; Emax (HCA2/GPR109A; HCA2): 98%; EC50 (HCA2/GPR109A): 54 ± 6 nM
7 | O=C(CSc1nc(=O)c2c(CCCCCl)cc(=O)oc2[nH]1)OCc1ccccc1 [3-3] | significantly increased |  |  | 65 ± 2 | 49 ± 5 |  |  |  |  | 53 ± 9 | significantly reduced | inhibition at 50 µM (FFA2/GPR43; Flp-In-293): 66 ± 6%; inhibition at 50 µM (FFA3/GPR41 [3]; Flp-In-293, 50 µM compound, NA = not active up to 50 µM): 72 ± 2%; Emax (HCA2/GPR109A; HCA2): 85%; EC50 (HCA2/GPR109A): 17000 ± 3000 nM
8 | CC(Sc1nc(=O)c2c(CCCCCl)cc(=O)oc2[nH]1)C(=O)c1ccc(OCc2ccccc2)cc1 (stereo not drawn) [3-4, 2-[2-(4-Benzyloxy-phenyl)-1-methyl-2-oxo-ethylsulfanyl]-5-(4-chlorobutyl)-1H-pyrano[2,3-d]pyrimidine-4,7-dione] |  |  |  | 61 ± 1 | 41 ± 1 | 95 | 380 ± 100 |  |  | 58 ± 10 | significantly reduced | inhibition at 50 µM (FFA2/GPR43; Flp-In-293): 49 ± 2%; El.ox. pot. (single value) [2]: 1.98 V; inhibition at 50 µM (HCA2/GPR109A; HCA2, 50 µM compound, NA = not active up to 50 µM): 33 ± 16%
9 | O=C(O)c1cccnc1 [niacin, reference compound] |  |  |  |  |  |  |  |  |  |  |  | LPS-stimulated FFA3/GPR41 gene expression (FFA3/GPR41 mRNA; niacin 50 µM): did not affect; LPS-stimulated FFA2/GPR43 gene expression (FFA2/GPR43 mRNA; niacin 50 µM): did not affect; downregulation of LPS-induced MCP-1 mRNA (MCP-1 mRNA; niacin 50 µM): 29 ± 1%; downregulation of LPS-induced TNF-α mRNA (TNF-α mRNA; niacin 50 µM): 32 ± 3%
10 | CCC(=O)O [propionate, reference compound] |  |  |  |  |  |  |  |  |  |  |  | LPS-upregulated FFA2/GPR43 gene expression (FFA2/GPR43 mRNA; propionate 1 mM, not statistically significant (p > 0.05)): slightly increased; downregulation of LPS-induced IL-6 mRNA (IL-6 mRNA; propionate 1 mM): 66 ± 5%; downregulation of LPS-induced MCP-1 mRNA (MCP-1 mRNA; propionate 1 mM): 33 ± 2%; downregulation of LPS-induced TNF-α mRNA (TNF-α mRNA; propionate 1 mM): 42 ± 4%

Source: PMC8537386, “The Specificity and Broad Multitarget Properties of Ligands for the Free Fatty Acid Receptors FFA3/GPR41 and FFA2/GPR43 and the Related Hydroxycarboxylic Acid Receptor HCA2/GPR109A” (Pharmaceuticals, 2021)
